Where two headings read alike, the source gives them in different places.

Here are results for six compounds from article PMC7490547 (Frontiers in Pharmacology, 2020).

In one series the target is T1, human 5-HT3A receptor (Homo sapiens, UniProt P46098).
T1 construct: expressed in transfected cells; host or cells: HEK293-AEQ17 cells (HEK 293 stably expressing apoaequorin), transient transfection
T1 sequence (P46098 24-478): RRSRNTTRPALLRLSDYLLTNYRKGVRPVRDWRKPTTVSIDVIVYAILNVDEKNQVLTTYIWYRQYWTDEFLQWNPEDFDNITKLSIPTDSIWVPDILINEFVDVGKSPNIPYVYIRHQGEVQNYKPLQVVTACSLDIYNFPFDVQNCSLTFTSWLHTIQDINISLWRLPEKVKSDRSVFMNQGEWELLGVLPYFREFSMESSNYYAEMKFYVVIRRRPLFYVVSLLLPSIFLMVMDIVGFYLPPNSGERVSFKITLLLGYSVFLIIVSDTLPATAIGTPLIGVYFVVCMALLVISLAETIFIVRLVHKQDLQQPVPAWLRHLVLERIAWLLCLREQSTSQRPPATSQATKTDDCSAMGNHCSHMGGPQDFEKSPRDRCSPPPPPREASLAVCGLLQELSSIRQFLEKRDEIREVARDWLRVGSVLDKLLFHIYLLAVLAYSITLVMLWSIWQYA
Format: cell-based. Here is the method:
Cells were seeded in 25-cm^2 cell culture flasks in Dulbecco’s modified Eagle’s medium (DMEM)/Ham’s F12 (1:1) + 10% fetal bovine serum to obtain a cell density of 50% to 70%, and the following day, transiently transfected with cDNA encoding human 5-HT3A receptor (3 µg) using Lipofectamine 2000 reagent (Thermo Fisher Scientific-Invitrogen, Waltham, MA) according to the manufacturer’s instructions. Two days after transfection, cells were harvested by centrifugation and resuspended in 0.5 ml (25-cm^2 flask) DMEM/Ham’s F12 (1:1) + 0.1% bovine serum albumin. The cell suspension was incubated with 10 μM Coelenterazine h (Thermo Fisher Scientific-Invitrogen, Waltham, MA, USA) for three hours at room temperature in the dark. […] Luminescence was measured using a Luminoskan (Thermo Fisher Scientific, Waltham, MA, USA) equipped with an injector and recorded at a sampling rate of 2 Hz for up to 60 s. At the end of the experiments, cells were lysed with Triton X-100 0.1% (v/v) and CaCl2 50 mM, and aequorin luminescence was recorded to obtain the maximum Ca^2+ response. […] Data were exported to software Origin™ 8.5 (Originlab Corp. Northampton, MA, USA).

The next series concerns the target T2, human 5-HT3 receptor (Homo sapiens, UniProt P46098).
T2 sequence (P46098 24-478): T1 sequence (P46098 24-478)
Briefly: Two-electrode voltage clamp of 5-HT-induced currents in Xenopus oocytes expressing human 5-HT3A receptor. The class given is cell-based. On the set-up: host or cells: Xenopus laevis oocytes injected with cRNA. The source says: Mature female Xenopus laevis frogs were obtained from Xenopus leavis I, Ann Arbor, MI, USA. Experiments and methods used in this study were in accordance with the Guide for the Care and Use of Laboratory Animals of the National Institutes of Health (Bethesda, MD, USA) and our protocol (A9/08) was approved by the Institutional Animal Care and Use Committee at the College of Medicine and Health Sciences, United Arab Emirates University. Clusters of oocytes were removed surgically under benzocaine (0.03% w/v; Sigma, St.Louis, MO) anesthesia. Individually dissected oocytes were stored for 2 to 8 days in modified Barth’s solution (MBS) containing (in mM): NaCl 88; KCl 1; NaHCO3 2.4; CaCl2; 2; MgSO4 0.8; HEPES 10 (pH 7.5), supplemented with sodium pyruvate 2 mM, penicillin 10,000 IU/L, streptomycin 10 mg/L, gentamicin 50 mg/L, and theophylline 0.5 mM. […] In co-expression of subunit combinations, cDNAs for 5-HT3A and 5-HT3B subunits, were mixed in ratios of 1:1 (or 1:2), respectively. Following day, oocytes were placed in a 0.2 ml recording chamber and superfused at a constant rate of 3 to 5 ml/min. […] The oocytes were impaled with two standard glass microelectrodes filled with a 3 M KCl (1–3 MΩ) and voltage clamped at a holding potential of −70 mV using GeneClamp-500B amplifier (Axon Instruments Inc., Burlingame, CA). […] Compounds were applied by addition to the superfusate. […] Injections were performed 10 min prior to recordings using oil-driven ultra microsyringe pumps (Micro4; WPI, Inc. Sarasota, FL, USA).
The cDNA clones of the human 5-HT3A and 5-HT3B subunits were provided by OriGen Inc. (Rockville, MD). Complementary RNAs (cRNAs) were synthesized in vitro using a mMessage mMachine RNA transcription kit (Ambion Inc., Austin, TX). The quality and size of synthesized cRNAs were confirmed by denatured RNA agarose gels.
For the nonlinear curve fitting and regression fits of the dose-response curves and radio-ligand binding data, the computer software Origin™ 8.5 (Originlab Corp. Northampton, MA, USA) was used. In functional assays, average values were calculated as mean ± standard error means (S.E.M.). Statistical significance was analyzed using ANOVA or Student’s t test and post hoc Bonferroni test was used following ANOVA. Concentration-response curves were obtained by fitting the data to the logistic equation, […]
In general terms: In two-electrode clamp one electrode senses voltage and the other passes current.

For another series, the target named is T3, human 5-HT3AB receptors (Homo sapiens, UniProt O95264+P46098).
T3 construct: host or cells: Xenopus laevis oocytes, subunits injected at ratios 1:1 or 1:2
T3 sequence (P46098 24-478): T1 sequence (P46098 24-478)
T3 sequence (O95264 22-441): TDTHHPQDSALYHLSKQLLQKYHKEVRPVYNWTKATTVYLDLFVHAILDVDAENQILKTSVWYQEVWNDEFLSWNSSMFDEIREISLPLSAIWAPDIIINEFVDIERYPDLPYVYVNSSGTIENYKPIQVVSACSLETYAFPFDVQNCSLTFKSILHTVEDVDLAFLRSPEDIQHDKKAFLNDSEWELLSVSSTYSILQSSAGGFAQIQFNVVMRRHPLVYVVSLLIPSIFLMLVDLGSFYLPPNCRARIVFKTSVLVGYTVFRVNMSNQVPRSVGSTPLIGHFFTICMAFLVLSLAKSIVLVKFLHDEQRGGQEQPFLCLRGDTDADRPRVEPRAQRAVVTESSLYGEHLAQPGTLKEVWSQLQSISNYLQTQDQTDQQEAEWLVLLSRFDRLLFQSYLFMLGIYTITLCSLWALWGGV
Briefly: Two-electrode voltage clamp in Xenopus oocytes co-expressing 5-HT3A and 5-HT3B subunits. Format: cell-based. The note with it: 100 µM; 3 µM 5-HT for 5-HT3A and 30 µM 5-HT for 5-HT3AB; n = 5–7, P>0.05. The source says: Mature female Xenopus laevis frogs were obtained from Xenopus leavis I, Ann Arbor, MI, USA. Experiments and methods used in this study were in accordance with the Guide for the Care and Use of Laboratory Animals of the National Institutes of Health (Bethesda, MD, USA) and our protocol (A9/08) was approved by the Institutional Animal Care and Use Committee at the College of Medicine and Health Sciences, United Arab Emirates University. Clusters of oocytes were removed surgically under benzocaine (0.03% w/v; Sigma, St.Louis, MO) anesthesia. Individually dissected oocytes were stored for 2 to 8 days in modified Barth’s solution (MBS) containing (in mM): NaCl 88; KCl 1; NaHCO3 2.4; CaCl2; 2; MgSO4 0.8; HEPES 10 (pH 7.5), supplemented with sodium pyruvate 2 mM, penicillin 10,000 IU/L, streptomycin 10 mg/L, gentamicin 50 mg/L, and theophylline 0.5 mM. Human 5-HT3A receptor cRNA (3 ng in 50 nl) was injected into each oocyte as described before ([Ashoor et al., 2013]). In co-expression of subunit combinations, cDNAs for 5-HT3A and 5-HT3B subunits, were mixed in ratios of 1:1 (or 1:2), respectively. […] Current responses were digitized by A/D converter and analyzed using pClamp 10.4 (Molecular Devices-Axon Instruments, San Jose, CA USA) or Origin™ (Originlab Corp. Northampton, MA, USA), run on an IBM/PC. […]

Series [1] concerns voltage-gated Na+ channels. To be noted: cited from earlier work.
In the next series the test system is K+ channels. To be noted: cited from earlier work.
In a further series the test system is Ca2+ channels. To be noted: cited from earlier work.
On the set-up of series [2]: method as in Rollyson et al., 2014; Swain and Kumar Mishra, 2015. The note with it: ref Rollyson et al., 2014; Swain and Kumar Mishra, 2015; cited from earlier work.
Details of series [3]: method as in Lee et al., 1997; Wohlrab et al., 2015. The note with it: assumed value; ref Lee et al., 1997; Wohlrab et al., 2015; cited from earlier work.

Turning to `NCCc1c[nH]c2ccc(O)cc12` [5-HT, 5-hydroxytryptamine], at human 5-HT3A receptor (30 μM, coelenterazine h-loaded HEK-293-AEQ17 cells, n = 4), the “luminescence activation in cells not transfected with 5-HT3” value is on record as “did not cause luminescence activation”. Also, at human 5-HT3A receptor (HEK-293-AEQ17 cells transfected with human 5-HT3 receptor), the “slope of the aequorin concentration-response curve” value stood at 2.7.

As to `CN1[C@@H]2CC[C@H]1C[C@@H](OC(=O)c1cc(Cl)cc(Cl)c1)C2` [MDL72222, Tropanyl 3,5-dichlorobenzoate], the “inhibition of fast inward currents activated by 5-HT (1 μM) or 2-methyl-5-HT (10 μM)” value on human 5-HT3 receptor (0.5 µM, n = 7) is given as “completely inhibited”.

For `COc1cc(CNC(=O)CCCC/C=C/C(C)C)ccc1O` [capsaicin, (E)-N-[(4-Hydroxy-3-methoxyphenyl)methyl]-8-methyl-6-nonenamide], the “extent of inhibition among 5-HT3A, 5-HT3AB (1:1) and 5-HT3AB (1:2) receptors” value at human 5-HT3AB receptors is “not statistically different”. Further, the IC50 (as a rule, the point on the concentration scale where inhibition reaches its midpoint) is 40 µM in series [1] (ref Bielefeldt, 2000); 39 µM in series [1] (ref Duan et al., 2007); 100 µM in series [1] (ref Tomohiro et al., 2013); 76 µM in series [1] (ref Wang et al., 2007); 10 µM in the series on K+ channels (ref Aréchiga-Figueroa et al., 2017); 158 µM in the series with K+ channels (ref Grissmer et al., 1994). Moreover, the half-inhibitory concentration (IC50) is 21 µM in the series with K+ channels (ref Kuenzi and Dale, 1996); 103 µM in the series with K+ channels (ref Wu et al., 2011); 38 µM in the series on Ca2+ channels (ref Castillo et al., 2007); 44 µM in the series on Ca2+ channels (ref Kuenzi and Dale, 1996). In addition, the “LogP (octanol–water partition coefficient)” value in series [2] is given as 3.8. Also, the “fraction of topically applied capsaicin absorbed into the skin” value in series [3] is 2%.

Turning to `Oc1cc2c(cc1O)CN(C(=S)NCCc1ccc(Cl)cc1)CCC2` [capsazepine], on human 5-HT3 receptor (10 µM, 5-HT 1 µM, n = 4), the “change in amplitudes of 5-HT3 receptor-mediated currents, compound alone” value is recorded as “did not cause any significant change”.

Turning to `COc1cc(CNC(=O)CCCCCCC(C)C)ccc1O` [dihydrocapsaicin, Dihydrocapsaicin], the inhibition at 100 µM at human 5-HT3 receptor (read-out: 5-HT3 receptors inhibited to (% )) was found to be 62%.

With `COc1cc(C=O)ccc1O` [vanillin], on human 5-HT3 receptor (100 µM for 15 min, n = 8, P>0.05), the “effect on 5-HT3 receptor currents” value was “did not affect”.
